Results taken from article PMC6688997 (Nature Communications, 2019).

Tests used:
[1] = system: HCC78 cells (SLC34A2-ROS1); assay: CellTiter-Glo cell viability assay; format: cell-based; conditions: 72 h
Procedure: (§1) All media were supplemented with 100 U/ml penicillin, and 100 µg/ml streptomycin. All cells were routinely tested and verified to be free of mycoplasma contamination. […] To assess cell viability after 72-h drug treatment, 2000–5000 cells were plated in replicates of three to six in 96-well plates. Following the drug treatments, the cells were incubated with CellTiter-Glo assay reagent (Promega, Madison, WI, USA) for 10 min. […] IC50 values were determined using a nonlinear regression model with a sigmoidal dose response in GraphPad.

Ba/F3-ETV6-NTRK1 cells = assay: CellTiter-Glo cell viability assay; format: cell-based, murine; conditions: Mus musculus; source data sheet
Procedure: as §1

[2] = system: EML4-ALK I1171N induced Ba/F3 cells; assay: CellTiter-Glo cell viability assay; format: cell-based, murine; conditions: Mus musculus, BaF3, 72 h; read-out: IC50
ACK = target: T1, ACK (Homo sapiens, UniProt Q07912); assay: Kinase assay, ATP Km; format: biochemical
T1 construct: purchased Carna Biosciences, Inc. (Kobe, Japan); assay run by the vendor
T1 sequence (Q07912 whole entry): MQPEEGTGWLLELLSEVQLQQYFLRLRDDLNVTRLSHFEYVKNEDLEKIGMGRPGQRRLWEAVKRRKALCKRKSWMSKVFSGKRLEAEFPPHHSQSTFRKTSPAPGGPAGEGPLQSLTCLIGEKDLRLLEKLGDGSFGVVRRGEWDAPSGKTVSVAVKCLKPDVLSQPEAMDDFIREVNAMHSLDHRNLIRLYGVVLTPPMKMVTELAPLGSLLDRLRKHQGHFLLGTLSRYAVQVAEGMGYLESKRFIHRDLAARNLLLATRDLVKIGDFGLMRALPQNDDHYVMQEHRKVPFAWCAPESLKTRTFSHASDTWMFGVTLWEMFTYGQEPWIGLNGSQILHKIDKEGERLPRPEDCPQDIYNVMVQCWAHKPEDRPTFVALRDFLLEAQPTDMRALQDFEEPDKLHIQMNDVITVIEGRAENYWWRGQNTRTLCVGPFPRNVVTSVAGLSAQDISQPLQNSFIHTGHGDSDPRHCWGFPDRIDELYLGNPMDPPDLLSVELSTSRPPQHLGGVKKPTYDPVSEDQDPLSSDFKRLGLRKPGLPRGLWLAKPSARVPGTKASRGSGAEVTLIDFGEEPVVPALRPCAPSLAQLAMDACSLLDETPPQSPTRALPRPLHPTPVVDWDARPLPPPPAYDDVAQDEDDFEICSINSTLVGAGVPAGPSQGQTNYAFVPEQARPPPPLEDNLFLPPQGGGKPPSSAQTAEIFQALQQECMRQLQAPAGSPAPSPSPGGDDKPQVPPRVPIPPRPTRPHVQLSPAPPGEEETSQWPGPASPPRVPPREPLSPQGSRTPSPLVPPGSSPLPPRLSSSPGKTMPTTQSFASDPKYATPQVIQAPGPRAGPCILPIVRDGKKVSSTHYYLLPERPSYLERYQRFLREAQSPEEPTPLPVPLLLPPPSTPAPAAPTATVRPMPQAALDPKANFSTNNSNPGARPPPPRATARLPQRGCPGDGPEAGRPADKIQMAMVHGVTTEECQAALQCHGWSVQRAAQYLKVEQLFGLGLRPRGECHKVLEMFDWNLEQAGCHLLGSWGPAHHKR

NuaK2 = NuaK2 (Homo sapiens, UniProt Q9H093); assay: Kinase assay, ATP Km; format: biochemical
JAK3 = target: T2, JAK3 (Homo sapiens, UniProt P52333); assay: Kinase assay, ATP Km; format: biochemical
T2 construct: purchased Carna Biosciences

SIK = target: T3, SIK (Homo sapiens, UniProt P57059); assay: Kinase assay, ATP Km; format: biochemical
T3 construct: purchased Carna Biosciences

FLT3 = target: T4, FLT3 (Homo sapiens, UniProt P36888); assay: Kinase assay, ATP Km; format: biochemical
T4 construct: purchased Carna Biosciences

ROCK1 = ROCK1 (Homo sapiens, UniProt Q13464); assay: Kinase assay, ATP Km; format: biochemical
EPHB1 = EPHB1 (Homo sapiens, UniProt P54762); assay: Kinase assay, ATP Km; format: biochemical
ARG = ARG (Homo sapiens, UniProt P42684); assay: Kinase assay, ATP Km; format: biochemical
Chain of ARG (P42684 whole entry): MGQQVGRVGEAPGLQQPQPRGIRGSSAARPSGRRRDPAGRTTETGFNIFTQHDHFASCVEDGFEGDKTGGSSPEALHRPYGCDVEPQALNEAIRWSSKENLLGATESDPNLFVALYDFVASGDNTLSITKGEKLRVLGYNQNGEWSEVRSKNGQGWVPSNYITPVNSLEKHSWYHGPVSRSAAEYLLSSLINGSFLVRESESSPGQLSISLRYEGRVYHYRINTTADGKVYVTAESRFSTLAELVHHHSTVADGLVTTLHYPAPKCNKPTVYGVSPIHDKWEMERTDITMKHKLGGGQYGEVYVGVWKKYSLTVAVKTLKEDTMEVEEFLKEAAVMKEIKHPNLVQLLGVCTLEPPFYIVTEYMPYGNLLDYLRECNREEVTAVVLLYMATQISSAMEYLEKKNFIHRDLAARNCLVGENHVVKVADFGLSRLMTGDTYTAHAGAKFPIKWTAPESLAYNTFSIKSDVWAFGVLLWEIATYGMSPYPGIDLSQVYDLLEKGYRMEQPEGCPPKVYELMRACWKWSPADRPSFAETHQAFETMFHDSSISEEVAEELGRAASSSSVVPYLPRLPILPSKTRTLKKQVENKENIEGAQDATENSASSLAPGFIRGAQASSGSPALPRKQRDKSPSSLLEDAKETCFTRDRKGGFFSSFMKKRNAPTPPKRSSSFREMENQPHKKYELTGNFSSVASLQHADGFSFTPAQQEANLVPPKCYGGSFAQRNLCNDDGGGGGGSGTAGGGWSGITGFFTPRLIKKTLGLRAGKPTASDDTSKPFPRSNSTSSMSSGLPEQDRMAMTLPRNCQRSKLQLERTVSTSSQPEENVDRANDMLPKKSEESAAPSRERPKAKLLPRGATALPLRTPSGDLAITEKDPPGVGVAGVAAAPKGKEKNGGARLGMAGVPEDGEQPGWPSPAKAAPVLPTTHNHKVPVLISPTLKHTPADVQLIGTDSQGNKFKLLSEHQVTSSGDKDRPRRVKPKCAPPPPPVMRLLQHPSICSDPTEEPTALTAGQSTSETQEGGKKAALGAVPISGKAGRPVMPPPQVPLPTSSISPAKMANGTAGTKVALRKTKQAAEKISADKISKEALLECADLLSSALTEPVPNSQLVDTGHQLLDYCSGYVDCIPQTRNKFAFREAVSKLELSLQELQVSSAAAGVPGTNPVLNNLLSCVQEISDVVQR

TEC = target: T5, TEC (Homo sapiens, UniProt P42680); assay: Kinase assay, ATP Km; format: biochemical
T5 construct: purchased Carna Biosciences

ABL = ABL (Homo sapiens, UniProt P00519); assay: Kinase assay, ATP Km; format: biochemical
Chain of ABL (P00519 whole entry): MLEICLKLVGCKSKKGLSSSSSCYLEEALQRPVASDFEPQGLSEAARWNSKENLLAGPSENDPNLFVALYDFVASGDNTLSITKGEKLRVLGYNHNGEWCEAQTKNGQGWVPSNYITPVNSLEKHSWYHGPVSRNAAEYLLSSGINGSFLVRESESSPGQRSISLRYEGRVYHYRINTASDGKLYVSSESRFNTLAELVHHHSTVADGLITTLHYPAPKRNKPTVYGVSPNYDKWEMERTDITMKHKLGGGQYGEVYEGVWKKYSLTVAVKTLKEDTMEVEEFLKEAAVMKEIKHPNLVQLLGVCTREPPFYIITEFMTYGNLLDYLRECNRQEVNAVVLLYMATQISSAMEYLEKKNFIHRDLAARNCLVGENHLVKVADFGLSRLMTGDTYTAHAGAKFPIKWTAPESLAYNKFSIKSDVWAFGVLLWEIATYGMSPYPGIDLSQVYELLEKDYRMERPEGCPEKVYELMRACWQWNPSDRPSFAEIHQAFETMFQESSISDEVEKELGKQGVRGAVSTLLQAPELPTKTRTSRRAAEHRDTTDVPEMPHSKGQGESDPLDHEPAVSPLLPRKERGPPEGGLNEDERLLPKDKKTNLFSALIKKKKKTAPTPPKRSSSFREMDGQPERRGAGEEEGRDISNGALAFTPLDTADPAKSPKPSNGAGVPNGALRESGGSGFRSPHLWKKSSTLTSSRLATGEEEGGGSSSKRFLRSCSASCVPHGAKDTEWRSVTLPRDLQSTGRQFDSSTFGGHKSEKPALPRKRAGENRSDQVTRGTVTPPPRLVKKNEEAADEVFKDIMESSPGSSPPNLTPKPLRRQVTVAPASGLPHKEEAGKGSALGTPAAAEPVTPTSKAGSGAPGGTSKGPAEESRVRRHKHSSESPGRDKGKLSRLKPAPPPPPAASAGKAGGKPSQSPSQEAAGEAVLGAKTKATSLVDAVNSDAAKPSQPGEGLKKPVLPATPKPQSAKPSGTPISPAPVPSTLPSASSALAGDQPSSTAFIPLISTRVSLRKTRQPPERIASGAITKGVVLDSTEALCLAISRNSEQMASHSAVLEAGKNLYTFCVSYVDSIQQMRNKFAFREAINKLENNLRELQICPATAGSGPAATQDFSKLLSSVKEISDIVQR

PKCδ = PKCδ (Homo sapiens, UniProt Q05655); assay: Kinase assay, ATP Km; format: biochemical
Chain of PKCδ (Q05655 whole entry): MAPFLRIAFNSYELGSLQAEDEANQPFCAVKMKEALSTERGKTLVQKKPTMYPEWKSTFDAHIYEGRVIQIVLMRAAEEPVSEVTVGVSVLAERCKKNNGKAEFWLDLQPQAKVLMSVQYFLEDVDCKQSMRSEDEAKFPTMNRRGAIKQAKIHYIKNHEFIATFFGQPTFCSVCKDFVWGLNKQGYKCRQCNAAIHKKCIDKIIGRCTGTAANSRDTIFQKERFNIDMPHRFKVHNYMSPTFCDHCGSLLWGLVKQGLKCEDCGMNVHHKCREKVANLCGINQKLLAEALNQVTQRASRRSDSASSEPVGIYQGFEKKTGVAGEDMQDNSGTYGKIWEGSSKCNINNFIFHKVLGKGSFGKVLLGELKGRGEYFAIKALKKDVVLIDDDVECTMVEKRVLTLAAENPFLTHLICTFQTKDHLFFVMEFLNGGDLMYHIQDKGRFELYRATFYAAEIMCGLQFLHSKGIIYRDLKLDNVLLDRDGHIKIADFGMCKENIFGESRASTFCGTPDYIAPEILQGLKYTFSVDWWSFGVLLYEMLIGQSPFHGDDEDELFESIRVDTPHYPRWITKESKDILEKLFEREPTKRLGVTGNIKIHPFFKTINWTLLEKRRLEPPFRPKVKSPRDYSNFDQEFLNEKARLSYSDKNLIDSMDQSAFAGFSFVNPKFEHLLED

PKCε = target: T6, PKCε (Homo sapiens, UniProt Q02156); assay: Kinase assay, ATP Km; format: biochemical
T6 construct: purchased Carna Biosciences

HER4 = target: T7, HER4 (Homo sapiens, UniProt Q15303); assay: Kinase assay, ATP Km; format: biochemical
T7 construct: purchased Carna Biosciences

PKCβ1 = PKCβ1 (Homo sapiens, UniProt P05771); assay: Kinase assay, ATP Km; format: biochemical
PKCι = PKCι (Homo sapiens, UniProt P41743); assay: Kinase assay, ATP Km; format: biochemical
PKCζ = PKCζ (Homo sapiens, UniProt Q05513); assay: Kinase assay, ATP Km; format: biochemical
MSK1 = MSK1 (Homo sapiens, UniProt O75582); assay: Kinase assay, ATP Km; format: biochemical
KIT = target: T8, KIT (Homo sapiens, UniProt P10721); assay: Kinase assay, ATP Km; format: biochemical
T8 construct: purchased Carna Biosciences, Inc. (Kobe, Japan); assay run by the vendor

SRM = target: T9, SRM (Homo sapiens, UniProt Q9H3Y6); assay: Kinase assay, ATP Km; format: biochemical
T9 construct: purchased Carna Biosciences

PAK4 = target: T10, PAK4 (Homo sapiens, UniProt O96013); assay: Kinase assay, ATP Km; format: biochemical
T10 construct: purchased Carna Biosciences
T10 sequence (O96013 whole entry): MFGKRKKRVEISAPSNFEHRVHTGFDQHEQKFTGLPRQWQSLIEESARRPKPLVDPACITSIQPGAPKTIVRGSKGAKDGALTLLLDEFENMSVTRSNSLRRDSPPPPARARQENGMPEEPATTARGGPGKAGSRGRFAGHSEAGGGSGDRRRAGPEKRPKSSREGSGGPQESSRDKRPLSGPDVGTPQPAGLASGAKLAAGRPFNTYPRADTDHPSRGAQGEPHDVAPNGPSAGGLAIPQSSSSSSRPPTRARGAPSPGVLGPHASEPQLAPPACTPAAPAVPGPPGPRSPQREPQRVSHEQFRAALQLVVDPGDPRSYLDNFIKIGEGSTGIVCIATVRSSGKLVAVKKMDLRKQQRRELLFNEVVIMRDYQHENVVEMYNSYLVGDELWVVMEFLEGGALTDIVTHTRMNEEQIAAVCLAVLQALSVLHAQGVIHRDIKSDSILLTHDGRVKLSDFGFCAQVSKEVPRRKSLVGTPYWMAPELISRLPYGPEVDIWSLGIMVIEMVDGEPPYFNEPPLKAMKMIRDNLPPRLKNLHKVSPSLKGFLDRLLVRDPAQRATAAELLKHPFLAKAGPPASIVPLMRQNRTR

RSK1 = target: T11, RSK1 (Homo sapiens, UniProt Q15418); assay: Kinase assay, ATP Km; format: biochemical
T11 construct: purchased Carna Biosciences

DCAMKL2 = DCAMKL2 (Homo sapiens, UniProt Q8N568); assay: Kinase assay, ATP Km; format: biochemical
DYRK2 = DYRK2 (Homo sapiens, UniProt Q92630); assay: Kinase assay, ATP Km; format: biochemical
CaMK1δ = CaMK1δ (Homo sapiens, UniProt Q8IU85); assay: Kinase assay, ATP Km; format: biochemical
PKCγ = PKCγ (Homo sapiens, UniProt P05129); assay: Kinase assay, ATP Km; format: biochemical
CDK2/CycA2 = CDK2/CycA2 (Homo sapiens, UniProt P24941); assay: Kinase assay, ATP Km; format: biochemical
IKKβ = target: T12, IKKβ (Homo sapiens, UniProt O14920); assay: Kinase assay, ATP Km; format: biochemical
T12 construct: purchased Carna Biosciences

WNK1 = target: T13, WNK1 (Homo sapiens, UniProt Q9H4A3); assay: Kinase assay, ATP Km; format: biochemical
T13 construct: purchased Carna Biosciences

CK1α = CK1α (Homo sapiens, UniProt P48729); assay: Kinase assay, ATP Km; format: biochemical
CHK2 = target: T14, CHK2 (Homo sapiens, UniProt O96017); assay: Kinase assay, ATP Km; format: biochemical
T14 construct: purchased Carna Biosciences

MAPKAPK3 = target: T15, MAPKAPK3 (Homo sapiens, UniProt Q16644); assay: Kinase assay, ATP Km; format: biochemical
T15 construct: purchased Carna Biosciences
T15 sequence (Q16644 whole entry): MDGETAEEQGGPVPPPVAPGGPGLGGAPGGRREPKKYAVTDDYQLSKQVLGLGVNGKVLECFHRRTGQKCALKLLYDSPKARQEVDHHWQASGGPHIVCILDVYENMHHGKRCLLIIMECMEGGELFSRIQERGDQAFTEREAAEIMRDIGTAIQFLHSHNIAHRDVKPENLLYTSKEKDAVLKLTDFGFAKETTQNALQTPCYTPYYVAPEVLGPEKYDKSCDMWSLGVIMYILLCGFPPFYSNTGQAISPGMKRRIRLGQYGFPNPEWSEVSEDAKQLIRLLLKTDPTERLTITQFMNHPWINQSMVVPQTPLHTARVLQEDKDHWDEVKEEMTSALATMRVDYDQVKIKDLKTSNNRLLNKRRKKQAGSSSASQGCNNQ

CRIK = CRIK (Homo sapiens, UniProt O14578); assay: Kinase assay, ATP Km; format: biochemical

Structure (SMILES): C[C@@H](N)COc1ccc(-c2cnc3ccc(N[C@H](C)c4cccc(F)c4)nn23)cc1.O=C(O)CCCCC(=O)O [DS-6051b]
- IC50 [1]: lower IC50 than crizotinib
- GI50 (Ba/F3-ETV6-NTRK1 cells): 17.8 nM
- IC50 [2]: 938 nM
- inhibition at 0.04 µM (ACK): 98.8%
- inhibition at 0.04 µM (NuaK2): 75.3%
- inhibition at 0.04 µM (JAK3): 74.4%
- inhibition at 0.04 µM (SIK): 63.8%
- inhibition at 0.04 µM (FLT3): 61.4%
- inhibition at 0.04 µM (ROCK1): 53%
- inhibition at 0.04 µM (EPHB1): 42.1%
- inhibition at 0.04 µM (ARG): 37.3%
- inhibition at 0.04 µM (TEC): 37.2%
- inhibition at 0.04 µM (ABL): 29.1%
- inhibition at 0.04 µM (PKCδ): 27.6%
- inhibition at 0.04 µM (PKCε): 23.4%
- inhibition at 0.04 µM (HER4): 22%
- inhibition at 0.04 µM (PKCβ1): 16.8%
- inhibition at 0.04 µM (PKCι): 15.6%
- inhibition at 0.04 µM (PKCζ): 15.5%
- inhibition at 0.04 µM (MSK1): 13.8%
- inhibition at 0.04 µM (KIT): 12.5%
- inhibition at 0.04 µM (SRM): 11.5%
- inhibition at 0.04 µM (PAK4): 7.6%
- inhibition at 0.04 µM (RSK1): 5.6%
- inhibition at 0.04 µM (DCAMKL2): 5.3%
- inhibition at 0.04 µM (DYRK2): 5.3%
- inhibition at 0.04 µM (CaMK1δ): 5.1%
- inhibition at 0.04 µM (PKCγ): 4.7%
- inhibition at 0.04 µM (CDK2/CycA2): 3%
- inhibition at 0.04 µM (IKKβ): -0.0613%
- inhibition at 0.04 µM (WNK1): -0.3%
- inhibition at 0.04 µM (CK1α): -0.531%
- inhibition at 0.04 µM (CHK2): -3.2%
- inhibition at 0.04 µM (MAPKAPK3): -6.1%
- inhibition at 0.04 µM (CRIK): -9.6%
